The record followed here is article PMC4449006, “Targeting KRAS Oncogene in Colon Cancer Cells with 7-Carboxylate Indolo[3,2-b]quinoline Tri-Alkylamine Derivatives” (PLoS ONE, 2015).

One experiment relates to SW620 cells. Put plainly: MTS short-term cytotoxicity assay (72 h), SW620. It counts as cell-based. To be noted: 72 h, MTS, standard errors ≤ 0.1. The procedure: (§1) The short-term effect of compounds at 72 h on cell growth was studied using colorectal carcinoma cell lines with different KRAS and TP53 genotypes: human colorectal carcinoma HCT116 (mut Kras, wild-type (wt) p53), and human metastatic colorectal adenocarcinoma SW620 (mut Kras, mut p53). In parallel, we also used the immortalized human embryonic kidney cell line HEK293T (wt Kras, wt p53) and normal human colon fibroblast cells CCD18co (wt Kras, wt p53).
(§2) SW620 human colorectal adenocarcinoma cells (European Collection of Cell Cultures, ECACC, Porton Down, Wiltshire, UK), HEK293T human embryonic kidney cells (ATCC, LGC Standards, UK) HCT116 human colon carcinoma cells (ECACC), HCT116 p53(+/+) and p53(−/−) isogenic human colon cancer cells (GRCF Cell Center and Biorepository, the Johns Hopkins University, School of Medicine, Baltimore, MD, USA), were grown in Dulbecco’s modified Eagle’s medium (DMEM) supplemented with 10% fetal bovine serum, and 1% antibiotic/antimycotic (Invitrogen, Grand Island, NY, USA), CCD18co human colon fibroblasts (ATCC, CRL-1459) were grown in Minimum Essential Medium (MEM) supplemented with 10% fetal bovine serum, 1% antibiotic/antimycotic, 2 mM GlutaMAX, 0,1 mM Non-essential amino acids (NEAA) (Invitrogen) and […] Recombinant Human TNF-α (Peprotech, USA) and maintained at 37°C in a humidified atmosphere of 5% CO2.
(§3) Cell viability was evaluated by the tetrazolium dye (MTS) Short-Term Cytotoxicity Assay. […] Following 72 h of compound exposure, cell viability was evaluated using the CellTiter 96 AQueous Non-Radioactive Cell Proliferation Assay (Promega, Madison, WI, USA), using 3-(4,5-dimethylthiazol-2-yl)-5-(3-carboxymethoxyphenyl)-2-(4-sulfophenyl)-2H-tetrazolium, inner salt (MTS) as previously described [35]. Cell viability data were expressed as mean ±SD from at least three independent experiments. IC50 and IC65 values were determined using GaphPad Prism v.5.00 (GraphPad Software). In selected experiments, cell viability was also assessed by trypan blue exclusion assay, and general cell death by LDH activity from cell culture supernatants.

For the next experiment, the system named is HSP90A G-quadruplex DNA. Kind of experiment: FRET melting assay, HSP90A G-quadruplex DNA. It counts as binding. The conditions noted are these: standard deviation < 0.2°C. The procedure:
(§4) The capacity of compounds 1a-d, 2a-d and the standard G4 ligand TMPyP4 (Fig 1) to bind and stabilize KRAS [26] and HSP90A [27] G4 DNA structures as well as duplex DNA (T-loop) was evaluated by a Fluorescence Resonance Energy Transfer (FRET) melting assay. […] It was observed that the basicity of side chains correlates positively with thermal G4 stabilization of all DNA sequences up to an optimal pKa ~ 8.0–9.0 (Fig 2). Heterocyclic amines at the end of alkyl side chain (1b and 2b) appear to improve binding to G4s and complex stabilization compared to the di-ethylamine group (1a and 2a), which cannot be explained by differences in basicity between terminal groups. […] However, this was not observed for the isomeric pair 1a / 2a.
(§5) All oligonucleotides were purchased from Eurofins MWG Synthesis GmbH, Germany. The labeled oligonucleotides used in the FRET assays had attached the donor fluorophore FAM (6-carboxyfluorescein) and the acceptor fluorophore TAMRA (6-carboxytetramethylrhodamine): KRAS21R (5’-FAM-[…]-TAMRA-3’); HSP90A (5’- [FAM]-[…]-[TAMRA]-3’); T-Loop (5’-FAM-[…]-TAMRA-3’). Each oligonucleotide was initially diluted to a storage solution at 100 μM in nuclease free water (not DEPC-treated), purchased from Ambion Applied Biosystems UK.
(§6) The ability of IQ3A and TMPyP4 to stabilize G-quadruplex and duplex DNA sequences was investigated using a Fluorescence Resonance Energy Transfer (FRET) assay. Stock solution of the oligonucleotides sequences at 20 μM and subsequent dilutions were obtained from storage solutions diluting with K-cacodylate buffer pH = 7.4, containing 60 mM K^+ (10 mM potassium cacodylate, 50 mM KCl). The FRET probe sequences were diluted from stock to the correct concentration (0.4 μM) and then annealed by heating to 95°C for 10 min, followed by cooling to RT. Test compounds were prepared as 1 mM in 10% DMSO and 10% 1mM HCl in HPLC-grade water. The rest of the dilutions were performed using FRET buffer. Annealed DNA (50 μL) and compound solution (50 μL) were distributed across 96-well RT-PCR plates (BioRad; MJ Research, Waltham, MA, USA). Relevant controls were also performed to check for interference with the assay. Fluorescence readings were made on a DNA Engine Opticon (MJ Research) with excitation at 450–495 nm and detection at 515–545 nm, taken at intervals of 0.5°C in the range 30–100°C, with a constant temperature being maintained for 30 s prior to each reading to ensure a stable value. Experiments were performed in triplicate. Final analysis of the data was carried out with GraphPad Prism 5.0 software (GraphPad Software, Inc). The advanced curve-fitting function in GraphPad Prism was used for calculation of ΔT m values and associated standard deviations.

The test system of the next experiment is HCT116 cells. Put plainly: MTS short-term cytotoxicity assay (72 h), HCT116. Type of experiment: cell-based, human. As for the experimental part: as §1, §2, §3
For a further experiment, the system named is T-Loop duplex DNA. Kind of experiment: FRET melting assay, duplex DNA. Type of experiment: binding. To be noted: standard deviation < 0.2°C. The procedure:
as §4, §5, §6

The subject of another experiment is HEK293T cells. Put plainly: MTS short-term cytotoxicity assay (72 h), HEK293T. It counts as cell-based, human. To be noted: MTS. The procedure:
as §1, §2, §3

In another experiment the test system is CCD18co cells. Put plainly: MTS short-term cytotoxicity assay (72 h), CCD18co. Type of experiment: cell-based. To be noted: Homo sapiens, CCD-18Co, MTS, standard errors ≤ 0.1, read-out: CCD18co IC50. The procedure:
as §1, §2, §3

As usually defined, the IC50 is the concentration that inhibits the measured activity by half.

Structures are written as SMILES.

As for `CCN(CC)CCOC(=O)c1ccc2c(c1)c1nc3ccccc3c(OCCN(CC)CC)c1n2CCN(CC)CC` [1a], the “SW620 IC65” value in the experiment on SW620 cells stood at 4.12 µM. Besides, the IC50 was determined as 2.69 µM in the experiment on SW620 cells (Homo sapiens, SW-620, read-out: SW620 IC50); 1.88 µM with HCT116 cells (Homo sapiens, HCT-116, 72 h, MTS, standard errors ≤ 0.1, read-out: HCT116 IC50); 3.23 µM in the experiment with HEK293T cells (Homo sapiens, HEK-293T, standard errors ≤ 0.1, read-out: HEK293T IC50); 4.63 µM with CCD18co cells. Besides, the “ΔTm (°C) HSP90A 1 μM” value in the experiment on HSP90A G-quadruplex DNA (1 μM compound) was 14 °C. Besides, in the experiment with HSP90A G-quadruplex DNA (2 μM compound), the “ΔTm (°C) HSP90A 2 μM” value worked out at 20 °C. In the experiment on HCT116 cells (72 h, MTS, standard errors ≤ 0.1), the “HCT116 IC65” value was found to be 3.42 µM. For the same compound, the “Selective index (SI) = IC50 CCD-18co / IC50 HCT116” value in the experiment on HCT116 cells (CCD18co vs HCT116) worked out at 2.46. Also, in the experiment with T-Loop duplex DNA (1 μM compound), the “ΔTm (°C) T-Loop 1 μM” value is less than 2 °C. Also, the “ΔTm (°C) T-Loop 2 μM” value in the experiment on T-Loop duplex DNA (2 μM compound) was found to be 3 °C. In addition, the “HEK293T IC65” value in the experiment on HEK293T cells (standard errors ≤ 0.1) was 6.06 µM.
